According to patent US9714249B2 (Novartis AG, priority 2013, dated 2017):

Legend:
BRD3 (His-Brd3(20-477)) = BRD3 (His-Brd3(20-477)) (Homo sapiens (Human), UniProt Q15059); assay: TR-FRET in-vitro binding assay for BRD3; details: acetyl-histone H4 peptide
Experimental: All assays were performed in 384 well microtiter plates. Each assay plate contained 8-point serial dilutions for 40 test compounds, plus 16 high- and 16 low controls. Liquid handling and incubation steps were done on an Innovadyne Nanodrop Express equipped with a robotic arm (Thermo CatX, Perkin Elmer/Caliper Twister II) and an incubator (Liconic STX40, Thermo Cytomat 2C450). The assay plates were prepared by addition of 50 nl per well of compound solution in 90% DMSO HummingBird nanodispenser (Zinsser Analytic). The assay was started by stepwise addition of 4.5 μl per well of bromo domain protein (50 mM HEPES, pH 7.5, 0.005% Tween20, 0.1% BSA, 50 mM NaCl, 45 nM His-Brd2(60-472) or 45 nM His-Brd3(20-477) or 45 nM His-Brd4(44-477) all proteins produced in-house) and 4.5 μl per well of peptide solution (50 mM HEPES, pH 7.5, 0.005% Tween20, 0.1% BSA, 50 mM NaCl, 60 nM acetyl-histone H4 (AcK 5, 8, 12, 16) (Biosyntan GmbH)). Reactions were incubated at 30° C. for 35 minutes. Subsequently 4.5 μl per well detection mix (50 mM HEPES, pH 7.5, 0.005% Tween20, 0.1% BSA, 50 mM NaCl, 3 nM Eu-labeled anti-His6 antibody, 21 nM streptavidin-allophycocyanin) were added. After 35 minutes incubation at 30° C., plates were measured in a Perkin Elmer EnVision multilabel reader. Concentrations causing 50% inhibition (1050) values were determined from percent inhibition values at different compound concentrations by non-linear regression analysis.
Test compounds were dissolved in DMSO (10 mM) and transferred into 1.4 mL flat bottom or V-shaped Matrix tubes carrying a unique 2D matrix. The stock solutions were stored at […] if not used immediately. For the test procedure the vials were defrosted and identified by a scanner whereby a working sheet was generated that guided the subsequent working steps. Compound dilutions were made in 96 well plates. This format enabled the assay of maximally 40 individual test compounds at 8 concentrations (single points) including 4 reference compounds, if desired (known BET inhibitors from the prior art, for this and other assays of the type disclosed herein). The dilution protocol included the production of “pre-dilution plates”, “master plates” and “assay plates”.
Pre-dilution plates: 96 polypropylene well plates were used as pre-dilution plates. A total of 4 pre-dilution plates were prepared including 10 test compounds each on the plate positions A1-A10, one standard compound at A11 and one DMSO control at A12. All dilution steps were done on a HamiltonSTAR robot. Master plates: 30 μL of individual compound dilutions including standard compound and controls of the 4 “pre-dilution plates” were transferred into a 384 “master plate” including the following concentrations 10000, 3003, 1000, 300, 100, 30, 10 and 3 μM, respectively in 90% of DMSO. Assay plates: Identical “assay plates” were then prepared by pipetting 50 nL each of compound dilutions of the “master plates” into 384-well “assay plates” by means of a HummingBird 384-channel dispenser. These plates were used directly for the assay which was performed in a total volume of 13.55 μL. This led to a final compound concentration of 37, 11, 3.7, 1.1, 0.37, 0.11, 0.037 and 0.011 μM and a final DMSO concentration of 0.37% in the assay. Cell Growth Inhibition Assay

BRD4-NUT-fusion = BRD4-NUT-fusion (Homo sapiens (Human), UniProt O60885+Q86Y26); assay: Nut-foci formation assay (HCS) in HCC2494 NUT midline carcinoma cells; assay type: cell-based; details: 24 hours, nuclear BRD4-NUT foci, immunofluorescence
Experimental: Compound-mediated inhibition of BRD4 activity was monitored by quantification of the number and intensity of nuclear BRD4-NUT foci using automated immunofluorescence microscopy. Briefly, 5000 cells in 20 μl fresh medium were seeded into Poly-D-Lysine-precoated 384-well plates and incubated overnight at 37° C. and 5% CO2, followed by addition of 5 μl medium containing compound dilutions at 5-fold their final intended concentration. Dose-response effects were assessed by 3-fold serial dilutions of the test compound, starting at 10 μM. […] Assay plates were imaged using the appropriate filter sets on the Cellomics VTi automated fluorescence microscopy platform (ThermoFisher Scientific) and the population average of the number of NUT-foci per nucleus is quantified using the Cellomics Spot Detection BioApplication image analysis algorithm (ThermoFisher Scientific). The effect of a particular test compound concentration on NUT-foci number and intensity is expressed as percentage of the value obtained for cells treated with vehicle only (DMSO, 0.1% final concentration), which was set as 100.

Sequence of BRD3 (His-Brd3(20-477)) (Q15059 20-477, species assumed): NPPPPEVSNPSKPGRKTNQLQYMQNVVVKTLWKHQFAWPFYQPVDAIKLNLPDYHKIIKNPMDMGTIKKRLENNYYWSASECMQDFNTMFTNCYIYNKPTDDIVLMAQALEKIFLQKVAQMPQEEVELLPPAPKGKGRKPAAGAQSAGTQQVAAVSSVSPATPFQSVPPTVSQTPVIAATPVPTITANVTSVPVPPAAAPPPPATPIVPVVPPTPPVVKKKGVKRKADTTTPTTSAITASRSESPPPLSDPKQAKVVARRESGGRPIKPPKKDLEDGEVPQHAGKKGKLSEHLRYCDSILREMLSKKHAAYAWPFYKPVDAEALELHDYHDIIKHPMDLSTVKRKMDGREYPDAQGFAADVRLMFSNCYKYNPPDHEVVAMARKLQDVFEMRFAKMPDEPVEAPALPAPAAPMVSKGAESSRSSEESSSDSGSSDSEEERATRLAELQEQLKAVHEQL

IC50 (BRD3 (His-Brd3(20-477))) | IC50 (BRD4-NUT-fusion) | SMILES
30 nM | 33.3 nM | Cc1cc(N2C(=O)c3c(C4CC4)nn(C)c3C2c2ccc(Cl)cc2)cn(C)c1=O (stereo not shown) [Example 1, 6-(4-chlorophenyl)-3-cyclopropyl-5-(1,5-dimethyl-6-oxo-1,6-dihydropyridin-3-yl)-1-methyl-5,6-dihydropyrrolo[3,4-c]pyrazol-4(1H)-one]
74 nM |  | COc1ncc(-n2nc3c(c2C)C(=O)N(c2cc(C)c(=O)n(C)c2)C3c2ccc(Cl)cc2)c(OC)n1 (stereo not shown) [Example 14, 6-(4-chlorophenyl)-2-(2,4-dimethoxypyrimidin-5-yl)-5-(1,5-dimethyl-6-oxo-1,6-dihydropyridin-3-yl)-3-methyl-5,6-dihydropyrrolo[3,4-c]pyrazol-4(2H)-one]
69 nM |  | Cc1[nH]nc2c1C(=O)N(c1cc(Cl)c(=O)n(C)c1)[C@@H]2c1ccc(Cl)cc1 [Example 28, (R)-5-(5-chloro-1-methyl-6-oxo-1,6-dihydropyridin-3-yl)-6-(4-chlorophenyl)-3-methyl-5,6-dihydropyrrolo[3,4-c]pyrazol-4(2H)-one]
13 nM | 29.9 nM | COCCn1nc(C2CC2)c2c1C(c1ccc(Cl)cc1)N(c1cc(C)c(=O)n(C)c1)C2=O (stereo not shown) [Example 4, 6-(4-chlorophenyl)-3-cyclopropyl-5-(1,5-dimethyl-6-oxo-1,6-dihydropyridin-3-yl)-1-(2-methoxyethyl)-5,6-dihydropyrrolo[3,4-c]pyrazol-4(1H)-one]
46 nM | 40.3 nM | COc1ncccc1-n1nc2c(c1C)C(=O)N(c1cc(C)c(=O)n(C)c1)C2c1ccc(Cl)cc1 (stereo not shown) [Example 17b, 6-(4-chlorophenyl)-5-(1,5-dimethyl-6-oxo-1,6-dihydropyridin-3-yl)-2-(2-methoxypyridin-3-yl)-3-methyl-5,6-dihydropyrrolo[3,4-c]pyrazol-4(2H)-one]
89 nM |  | Cc1cc(N2C(=O)c3c(C4CC4)nn(-c4ccnn4C)c3[C@H]2c2ccc(Cl)cc2)cn(C)c1=O [Example 22, (R)-6-(4-chlorophenyl)-3-cyclopropyl-5-(1,5-dimethyl-6-oxo-1,6-dihydropyridin-3-yl)-1-(1-methyl-1H-pyrazol-5-yl)-5,6-dihydropyrrolo[3,4-c]pyrazol-4(1H)-one]
82 nM | 138 nM | Cc1cc(N2C(=O)c3c(C4CC4)nn(-c4ccnn4C)c3C2c2ccc(Cl)cc2)cn(C)c1=O (stereo not shown) [Example 5, 6-(4-chlorophenyl)-3-cyclopropyl-5-(1,5-dimethyl-6-oxo-1,6-dihydropyridin-3-yl)-1-(1-methyl-1H-pyrazol-5-yl)-5,6-dihydropyrrolo[3,4-c]pyrazol-4(1H)-one]
34 nM | 49 nM | Cc1cc(N2C(=O)c3c(C4CC4)nn(CCO)c3C2c2ccc(Cl)cc2)cn(C)c1=O (stereo not shown) [Example 3, 6-(4-chlorophenyl)-3-cyclopropyl-5-(1,5-dimethyl-6-oxo-1,6-dihydropyridin-3-yl)-1-(2-hydroxyethyl)-5,6-dihydropyrrolo[3,4-c]pyrazol-4(1H)-one]
39 nM | 21.7 nM | CCOc1ncccc1-n1nc2c(c1C)C(=O)N(c1cc(C)c(=O)n(C)c1)C2c1ccc(Cl)cc1 (stereo not shown) [Example 18b, 6-(4-chlorophenyl)-5-(1,5-dimethyl-6-oxo-1,6-dihydropyridin-3-yl)-2-(2-ethoxypyridin-3-yl)-3-methyl-5,6-dihydropyrrolo[3,4-c]pyrazol-4(2H)-one]
46 nM | 48.4 nM | Cc1nn(C(C)C)c2c1C(=O)N(c1cc(C)c(=O)n(C)c1)C2c1ccc(Cl)cc1 (stereo not shown) [Example 12, 6-(4-chlorophenyl)-5-(1,5-dimethyl-6-oxo-1,6-dihydropyridin-3-yl)-1-isopropyl-3-methyl-5,6-dihydropyrrolo[3,4-c]pyrazol-4(1H)-one]
47 nM |  | Cc1cc(N2C(=O)c3c(C4CC4)n[nH]c3[C@H]2c2ccc(Cl)cc2)cn(C)c1=O [Example 24, (R)-6-(4-chlorophenyl)-3-cyclopropyl-5-(1,5-dimethyl-6-oxo-1,6-dihydropyridin-3-yl)-5,6-dihydropyrrolo[3,4-c]pyrazol-4(1H)-one]
52 nM |  | COc1ncc(-n2nc(C)c3c2C(c2ccc(Cl)cc2)N(c2cc(C)c(=O)n(C)c2)C3=O)cn1 (stereo not shown) [Example 21a, 6-(4-chlorophenyl)-5-(1,5-dimethyl-6-oxo-1,6-dihydropyridin-3-yl)-1-(2-methoxypyrimidin-5-yl)-3-methyl-5,6-dihydropyrrolo[3,4-c]pyrazol-4(1H)-one]
50 nM | 73.6 nM | COc1ccc(-n2nc3c(c2C)C(=O)N(c2cc(C)c(=O)n(C)c2)C3c2ccc(Cl)cc2)cn1 (stereo not shown) [Example 20a, 6-(4-chlorophenyl)-5-(1,5-dimethyl-6-oxo-1,6-dihydropyridin-3-yl)-2-(6-methoxypyridin-3-yl)-3-methyl-5,6-dihydropyrrolo[3,4-c]pyrazol-4(2H)-one]
73 nM | 66.7 nM | Cc1nn(-c2cccnc2F)c2c1C(=O)N(c1cc(C)c(=O)n(C)c1)C2c1ccc(Cl)cc1 (stereo not shown) [Example 19, 6-(4-chlorophenyl)-5-(1,5-dimethyl-6-oxo-1,6-dihydropyridin-3-yl)-1-(2-fluoropyridin-3-yl)-3-methyl-5,6-dihydropyrrolo[3,4-c]pyrazol-4(1H)-one]
75.5 nM |  | COc1ccc(-n2nc(C)c3c2C(c2ccc(Cl)cc2)N(c2cc(C)c(=O)n(C)c2)C3=O)cc1 (stereo not shown) [Example 13, 6-(4-chlorophenyl)-5-(1,5-dimethyl-6-oxo-1,6-dihydropyridin-3-yl)-1-(4-methoxyphenyl)-3-methyl-5,6-dihydropyrrolo[3,4-c]pyrazol-4(1H)-one]
52 nM |  | COc1ncccc1-n1nc2c(c1C)C(=O)N(c1cc(C)c(=O)n(C)c1)[C@@H]2c1ccc(Cl)cc1 [Example 26, (R)-6-(4-chlorophenyl)-5-(1,5-dimethyl-6-oxo-1,6-dihydropyridin-3-yl)-2-(2-methoxypyridin-3-yl)-3-methyl-5,6-dihydropyrrolo[3,4-c]pyrazol-4(2H)-one]
94 nM |  | COc1ncc(-n2nc3c(c2C)C(=O)N(c2cc(C)c(=O)n(C)c2)C3c2ccc(Cl)cc2)cn1 (stereo not shown) [Example 21b, 6-(4-chlorophenyl)-5-(1,5-dimethyl-6-oxo-1,6-dihydropyridin-3-yl)-2-(2-methoxypyrimidin-5-yl)-3-methyl-5,6-dihydropyrrolo[3,4-c]pyrazol-4(2H)-one]

SMILES | IC50 (BRD3 (His-Brd3(20-477))) | IC50 (BRD4-NUT-fusion)
CNC1=C(C(=N)C2CC2)C(=O)N(c2cc(C)c(=O)n(C)c2)[C@@H]1c1ccc(Cl)cc1 [Example 2] | 20 nM | 20.1 nM
COc1ncc(-n2nc(C)c3c2C(c2ccc(Cl)cc2)N(c2cc(Cl)c(=O)n(C)c2)C3=O)cn1 (stereo not shown) [Example 8a, 5-(5-chloro-1-methyl-6-oxo-1,6-dihydropyridin-3-yl)-6-(4-chlorophenyl)-1-(2-methoxypyrimidin-5-yl)-3-methyl-5,6-dihydropyrrolo[3,4-c]pyrazol-4(1H)-one] | 120 nM | 298 nM
COc1ncccc1-n1nc(C)c2c1[C@@H](c1ccc(Cl)cc1)N(c1cc(C)c(=O)n(C)c1)C2=O [Example 25, (R)-6-(4-chlorophenyl)-5-(1,5-dimethyl-6-oxo-1,6-dihydropyridin-3-yl)-1-(2-methoxypyridin-3-yl)-3-methyl-5,6-dihydropyrrolo[3,4-c]pyrazol-4(1H)-one] | 64 nM | 
